Like-named read-outs stand apart in the source and are kept apart here.
Key:
[1] = test system: MCF-7 mammary tumour cells; test: Anti-proliferative activity on the growth of MCF-7 mammary tumour cells (DNA dosage); format: cell-based; settings: MCF-7 cells in DSE medium with 10^-10 M estradiol, D7 to D9, DNA by DABA fluorimetry, read-out: IC 50: concentration which inhibits the growth of MCF7 cells by 50%
Procedure: 2—Anti-proliferative Activity of the Products of the Invention on the Growth of MCF-7 Mammary Tumour Cells
MCF-7 lines are kept in culture in FCS medium (according to 1) at 37° C. in a humid atmosphere containing 5% CO2. Subconfluent cells are collected by trypsination (0.05% trypsin, 0.02% EDTA) then rinsed by gentle centrifugation. A sample of cells in suspension is counted with a Malassez cell.
The cells, resuspended in DSE medium (according to 1), are seeded at the rate of 50,000 cells per well in multiwell plates (24 wells of 2.5 cm^2). Twenty-four hours after seeding (D0), the product to be tested is added to the medium in ethanolic solution (final concentration of ethanol: 0.1%), at a concentration of 10^−11 to 10^−6M, the control wells receiving the same ethanol concentration. The media are renewed every 48 hours. At the end of the experiment (D7 to D9), the medium is extracted and the cells are immediately fixed with 150 microlitres of methanol in order to dose the DNA.
The anti-proliferative activity of the products is evaluated by their capacity to inhibit the increase of DNA
The DNA is dosed by a fluorimetric method using DABA (3,5 diaminobenzoic acid) (according to 2): 150 microlitres of DABA are added to each well; the plates are then incubated for 45 mn at 56° C., then 2 ml of 1N HCl is added. The fluorescence is measured using a fluorimeter (excitation wavelength: 408 nm, emission wavelength: 510 nm).
The quantity of DNA per well is evaluated relative to a reference scale obtained by treating a calf thymus DNA standard under the same conditions.
The concentration in nM which inhibits the growth of MCF7 cells by 50% (IC50) was determined in the manner indicated above:
(1) A Base Medium is Prepared as Follows
The FCS medium is composed of 95% of base medium and 5% of foetal calf serum.
The DSE medium is composed of 95% of base medium, 5% of steroid-free foetal calf serum on carbon-dextran and 10^−10 M of estradiol.
(2) Puzas and Goodman, Analytical Biochemistry, Vol 86, p. 50, 1978

[2] = target: T1, Estrogen receptor of a mouse uterus (Mus musculus, UniProt P19785); test: Activity on the estrogen receptor of a mouse uterus (relative bond affinity, displacement of tritiated estradiol); format: binding; settings: mouse uterus cytosol, RBA = 100 (CH)/(CX) relative to unlabelled estradiol
T1 construct: The homogenate is then ultracentrifuged (209,000 g×30 mn.) at 0° C; from tissue; host or cells: uterus of 18 to 21-day old immature female mice, cytosol (ultracentrifugation supernatant of the homogenate)
T1 sequence (P19785 1-599): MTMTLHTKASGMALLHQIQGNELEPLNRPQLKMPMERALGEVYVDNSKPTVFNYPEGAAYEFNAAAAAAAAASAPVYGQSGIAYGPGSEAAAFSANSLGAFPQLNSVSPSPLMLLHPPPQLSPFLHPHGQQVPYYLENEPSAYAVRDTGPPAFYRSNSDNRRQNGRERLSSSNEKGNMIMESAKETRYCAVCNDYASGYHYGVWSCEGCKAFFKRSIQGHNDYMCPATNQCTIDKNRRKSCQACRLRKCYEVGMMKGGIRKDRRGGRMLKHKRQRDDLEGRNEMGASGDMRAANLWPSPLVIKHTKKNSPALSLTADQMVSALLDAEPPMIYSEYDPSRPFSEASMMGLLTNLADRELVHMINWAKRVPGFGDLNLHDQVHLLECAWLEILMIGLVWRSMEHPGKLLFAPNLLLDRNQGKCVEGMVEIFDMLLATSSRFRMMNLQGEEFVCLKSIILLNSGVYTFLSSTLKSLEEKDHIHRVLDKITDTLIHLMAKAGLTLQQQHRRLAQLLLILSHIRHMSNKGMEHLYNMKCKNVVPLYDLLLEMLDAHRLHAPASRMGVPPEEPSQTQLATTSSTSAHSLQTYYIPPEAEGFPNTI
Procedure: 1—Study of the Activity of the Products of the Invention on the Estrogen Receptor of a Mouse Uterus
18 to 21-day old impuberal female mice are sacrificed, the uteri are removed, then homogenized at 0° C., using a Potter teflon-glass in a TS buffered solution (10 mM Tris, 0.25 M saccharose, HCl pH 7.4) (1 g of tissue per 25 ml of TS). The homogenate is then ultracentrifuged (209,000 g×30 mn.) at 0° C. The supernatant aliquots thus obtained are incubated at 25° C. for 5 hours, with a constant concentration (T) of tritiated estradiol in the presence of increasing concentrations either of unlabelled estradiol (0-1000×10^−9M), or of unlabelled product to be tested (1 to 25000×10^−9M). The concentration of bound tritiated estradiol (B) is then measured in each incubate by the carbon-dextran adsorption technique.
Calculation of the Relative Bond Affinity (RBA)
The following two curves are drawn: the percentage of bound tritiated hormone B/BO as a function of the logarithm of the concentration of unlabelled reference hormone or as a function of the logarothm of the concentration of unlabelled test product.
The straight line of the following equation:
BO=% of binding of the bound tritiated hormone in the absence of any unlabelled product.
B=% of the bound tritiated hormone in the presence of a concentration X of unlabelled product.
B min=% of bound tritiated hormone in the presence of a large excess of unlabelled reference hormone (500 nM).
The intersections of the straight line I50 and the curves allow the evaluation of the concentrations of unlabelled reference hormone (CH) and of the unlabelled test product (CX) which inhibit by 50% the specific binding of the tritiated hormone on the receptor.
The relative bond affinity (RBA) of the test product is calculated by the equation: […]

IC50 [1]	SMILES	IC50 ([1]; Homo sapiens, MCF7)	Relative bond affinity (RBA), Estrogen receptor incubation 5H at 25° C. [2]
	C[C@]12C[C@H](CCCCCCCCSCc3ccccn3)[C@@H]3c4ccc(O)cc4CC[C@H]3[C@@H]1CC[C@@H]2O [Example 1, 11beta-[8-[(2-pyridinylmethyl)thio]octyl]estra-1,3,5(10)-triene-3,17beta-diol]	0.024 nM	
	C[C@]12C[C@H](c3ccc(OCCCCC[S+]([O-])Cc4ccccn4)cc3)[C@@H]3c4ccc(O)cc4CC[C@H]3[C@@H]1CC[C@@H]2O (stereo partly drawn) [Example 5, 11beta-[4-[5-[(2-pyridinylmethyl)sulphinyl]-pentyloxy]phenyl]estra-1,3,5(10)-triene-3,17beta-diol]	0.012 nM	21.2
	C[C@]12C[C@H](c3ccc(OCCCCC[S+]([O-])Cc4cccnc4)cc3)[C@@H]3c4ccc(O)cc4CC[C@H]3[C@@H]1CC[C@@H]2O (stereo partly drawn) [Example 7, 11beta-[4-[5-[(3-pyridinylmethyl)sulphinyl]pentyloxy]phenyl]estra-1,3,5(10)-triene-3,17beta-diol]	0.026 nM	26.3
	C[C@]12C[C@H](c3ccc(OCCCCCS(=O)(=O)CCCC(F)(F)C(F)(F)F)cc3)[C@@H]3c4ccc(O)cc4CC[C@H]3[C@@H]1CC[C@@H]2O [Example 32, 11beta-[4-[5-[(4,4,5,5,5-pentafluoropentyl)sulphonyl]pentyloxy]phenyl]estra-1,3,5(10)-triene-3,17beta-diol]	0.1 nM	56
	CCCCCS(=O)(=O)C(C)CCCOc1ccc([C@H]2C[C@]3(C)[C@@H](O)CC[C@H]3[C@@H]3CCc4cc(O)ccc4[C@H]32)cc1 (stereo partly drawn) [Example 60, 11beta-[4-[4-(pentylsulphonyl)pentyloxy]phenyl]estra-1,3,5(10)-triene-3,17beta-diol]	0.25 nM	18.2
0.03 nM	C[C@]1(O)CC[C@H]2[C@@H]3CCc4cc(O)ccc4[C@H]3[C@@H](c3ccc(OCCCCCS(=O)(=O)CCCC(F)(F)C(F)(F)F)cc3)C[C@@]21C [Example 78, 11beta-[4-[5-[(4,4,5,5,5-pentafluoropentyl)sulphonyl]pentyloxy]phenyl]17alpha-methyl estra-1,3,5(10)-triene-3,17beta-diol]		21.8

Reference: patent US6596885B2, “19-Nor steroids having a thiocarbonated chain in position 11beta, their preparation process and the intermediates of this process, their use as medicaments and compositions” (Aventis Pharma S.A., priority 1991, dated 2003)
